System: human microvascular endothelial cells
Test: in vitro transwell permeability assay (streptavidin-HRP leakage) with DENV NS1
Type: cell-based
Conditions: hyaluronidase 0.5 unit/mL to 50 units/mL added with DENV NS1 3 μg/ml for 6 hours; FIG. 6
Excerpt: Vascular leakage is an important feature in several diseases, such as septic shock, viral hemorrhagic fever, cancer metastasis and ischemia-reperfusion injuries. Thus, an in vitro endothelial permeability assay will provide insight into the establishment or progression of such diseases. The transwell permeability assays directly detect the penetration of a specific molecule, which can be detected by a spectrometer-based absorbance reader.
The permeability of human microvascular endothelial cells treated or not with DENV NS1 (3 μg/ml, Cat. No. ENZ-PRT105-0100, Enzo Life Sciences, Inc., NY, U.S.A.), was measured by an in vitro transwell permeability assay that mimics human endothelium in vivo (referring to http://www.bio-protocol.org/e2273). In brief, human microvascular endothelial cells (2×10^5) were grown in a 24-Transwell® (pore size: 0.4 μm, Cat. No. 3414; Corning, Kennebunk, Me., U.S.A.) for 5 days until a confluent monolayer was formed. […] Twenty microliters of medium, from each lower chamber, was transferred to a 96-well plate and analyzed for HRP activity by adding 100 μL 3,3′,5,5′-tetramethylbenzidine (TMB) substrate (Sigma-Aldrich, Cat. No. T4444, St. Louis, Mo., U.S.A.). Color development was detected by an EnSpire Multimode Reader (PerkinElmer, Upplands Väsby, Sweden) at 450 nm.

Substance: hyaluronidase
- DENV NS1-induced endothelial hyper-permeability: reverse the DENV NS1-induced endothelial hyper-permeability significantly
